Molecular target: SCN9A (Nav1.7) Na+ channel, α- and β1 subunits, in HEK293 cells (Homo sapiens, UniProt Q15858)
Experiment: Whole-cell patch clamp, Nav1.7 peak INa in HEK293 cells (Example 1)
Details: 0.1 Hz; for Mean amplitude of Nav1.7 peak INa, fraction of control: −100 mV to 0 mV, 50 msec; for p of logistic fit (Hill coefficient nH) for block of Nav1.7 peak INa / x0 of logistic fit (IC50) for block of Nav1.7 peak INa: holding −100 mV to 0 mV

SCN9A (Nav1.7) Na+ channel, α- and β1 subunits, in HEK293 cells, sequence (Q15858 whole entry): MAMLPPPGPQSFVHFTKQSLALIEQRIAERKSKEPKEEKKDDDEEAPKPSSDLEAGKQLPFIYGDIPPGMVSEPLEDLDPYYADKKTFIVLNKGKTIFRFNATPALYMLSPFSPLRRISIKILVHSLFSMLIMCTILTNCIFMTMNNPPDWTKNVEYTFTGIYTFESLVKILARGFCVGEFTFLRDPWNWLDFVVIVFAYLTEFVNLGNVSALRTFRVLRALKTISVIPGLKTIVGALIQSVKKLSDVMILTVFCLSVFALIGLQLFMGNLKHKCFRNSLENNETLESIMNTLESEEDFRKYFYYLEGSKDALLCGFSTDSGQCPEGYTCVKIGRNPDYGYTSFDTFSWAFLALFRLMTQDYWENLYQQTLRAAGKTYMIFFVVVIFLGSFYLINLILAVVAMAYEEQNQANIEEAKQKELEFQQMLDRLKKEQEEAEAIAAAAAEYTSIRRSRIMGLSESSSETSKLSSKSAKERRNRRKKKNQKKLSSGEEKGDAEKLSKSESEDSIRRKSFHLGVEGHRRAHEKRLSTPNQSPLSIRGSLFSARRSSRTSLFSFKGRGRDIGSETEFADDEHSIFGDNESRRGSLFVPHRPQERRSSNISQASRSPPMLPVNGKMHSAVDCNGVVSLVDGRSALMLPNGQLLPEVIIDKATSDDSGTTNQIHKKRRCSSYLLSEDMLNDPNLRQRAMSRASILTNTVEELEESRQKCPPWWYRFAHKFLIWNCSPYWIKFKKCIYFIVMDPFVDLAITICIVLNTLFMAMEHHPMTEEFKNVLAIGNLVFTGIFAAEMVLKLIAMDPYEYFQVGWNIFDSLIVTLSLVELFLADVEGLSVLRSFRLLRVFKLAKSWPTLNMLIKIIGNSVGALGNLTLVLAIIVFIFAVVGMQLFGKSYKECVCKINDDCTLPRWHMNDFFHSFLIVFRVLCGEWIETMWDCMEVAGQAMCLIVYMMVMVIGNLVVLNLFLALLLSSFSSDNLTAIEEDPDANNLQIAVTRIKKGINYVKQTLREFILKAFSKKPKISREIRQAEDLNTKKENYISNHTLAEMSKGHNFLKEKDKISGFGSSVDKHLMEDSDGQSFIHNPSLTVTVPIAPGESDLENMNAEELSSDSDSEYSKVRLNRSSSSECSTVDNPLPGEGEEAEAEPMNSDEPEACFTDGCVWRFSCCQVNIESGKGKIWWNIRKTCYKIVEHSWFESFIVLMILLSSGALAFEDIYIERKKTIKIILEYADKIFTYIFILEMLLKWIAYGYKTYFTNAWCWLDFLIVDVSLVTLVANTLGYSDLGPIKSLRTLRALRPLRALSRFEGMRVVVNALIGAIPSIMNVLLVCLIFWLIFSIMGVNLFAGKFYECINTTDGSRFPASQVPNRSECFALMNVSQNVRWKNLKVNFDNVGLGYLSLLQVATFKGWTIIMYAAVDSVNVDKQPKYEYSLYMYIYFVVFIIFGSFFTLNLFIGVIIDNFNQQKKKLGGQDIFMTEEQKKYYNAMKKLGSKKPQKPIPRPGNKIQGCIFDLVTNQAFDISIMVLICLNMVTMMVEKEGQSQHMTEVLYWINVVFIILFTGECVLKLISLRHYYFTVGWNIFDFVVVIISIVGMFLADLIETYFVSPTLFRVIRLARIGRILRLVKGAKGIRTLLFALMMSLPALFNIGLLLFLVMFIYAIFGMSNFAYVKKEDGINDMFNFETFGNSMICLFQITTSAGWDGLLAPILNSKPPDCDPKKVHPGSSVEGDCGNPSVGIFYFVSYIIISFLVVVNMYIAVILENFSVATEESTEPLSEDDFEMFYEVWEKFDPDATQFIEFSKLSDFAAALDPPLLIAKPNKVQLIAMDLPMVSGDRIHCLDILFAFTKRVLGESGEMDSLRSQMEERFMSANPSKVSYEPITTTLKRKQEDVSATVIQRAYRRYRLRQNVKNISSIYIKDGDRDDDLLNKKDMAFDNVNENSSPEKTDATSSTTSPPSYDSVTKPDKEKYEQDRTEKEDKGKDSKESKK
SCN9A (Nav1.7) Na+ channel, α- and β1 subunits, in HEK293 cells, sequence (Q07699 19-218 partner): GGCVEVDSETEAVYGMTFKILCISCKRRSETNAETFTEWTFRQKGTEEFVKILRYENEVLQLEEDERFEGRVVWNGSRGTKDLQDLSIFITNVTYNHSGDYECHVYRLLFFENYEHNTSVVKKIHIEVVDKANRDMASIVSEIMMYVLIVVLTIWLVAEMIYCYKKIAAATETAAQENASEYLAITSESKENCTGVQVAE

| SMILES | Mean amplitude of Nav1.7 peak INa, fraction of control (1 μM) | Mean amplitude of Nav1.7 peak INa, fraction of control (3 μM) | Mean amplitude of Nav1.7 peak INa, fraction of control (10 μM) | Mean amplitude of Nav1.7 peak INa, fraction of control (30 μM) | Mean amplitude of Nav1.7 peak INa, fraction of control (100 μM) | p of logistic fit (Hill coefficient nH) for block of Nav1.7 peak INa | x0 of logistic fit (IC50) for block of Nav1.7 peak INa |
| --- | --- | --- | --- | --- | --- | --- | --- |
| COc1ccccc1OC[C@H](O)CN1CCN(CC(=O)Nc2c(C)cccc2C)CC1 [R-Ranolazine, (R)-(+)-N-(2,6-dimethylphenyl)-4-[2-hydroxy-3-(2-methoxyphenoxy)-propyl]-1-piperazineacetamide] | 0.9252 | 0.8286 | 0.6336 | 0.2387 | 0.07855 | 1.212 | 11.33 μM |
| COc1ccccc1OC[C@@H](O)CN1CCN(CC(=O)Nc2c(C)cccc2C)CC1 [S-Ranolazine, (S)-(−)-N-(2,6-dimethylphenyl)-4-[2-hydroxy-3-(2-methoxyphenoxy)-propyl]-1-piperazineacetamide] | 0.8788 | 0.7285 | 0.5358 | 0.2883 | 0.06853 | 0.9409 | 9.433 μM |
